The text below walks through data of US20110313032A1, “COMPETITIVE INHIBITORS OF TYPE II DEHYDROQUINASE ENZYME” (priority 2008, published 2011).

Each structure is given as a SMILES string. Where a name gives a salt, the structure may show the parent alone. Read-outs that look alike come from different tables or passages of the source.

The target in data set [1] is T1, type II dehydroquinase from Helicobacter pylori (Helicobacter pylori, UniProt Q48255).
T1 sequence (Q48255 1-167): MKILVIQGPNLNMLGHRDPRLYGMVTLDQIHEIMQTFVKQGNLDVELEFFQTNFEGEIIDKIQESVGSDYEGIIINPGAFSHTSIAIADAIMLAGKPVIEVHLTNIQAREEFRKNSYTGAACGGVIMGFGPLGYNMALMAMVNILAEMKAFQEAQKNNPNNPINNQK
As to the kind of experiment: Inhibition of type II dehydroquinase from Helicobacter pylori (Ki). Type of data set: biochemical. Conditions: pH = 7.0, 25° C., 50 mM Tris•HCl. As for the experimental part:
(§1) Effect of compounds of formula I of the invention on the catalytic activity of the type II dehydroquinase from various sources. The inhibitory potency of compounds I of the invention against type II dehydroquinases from Mycobacterium tuberculoris, Streptomyces coelicolor and Helicobacter pylori were assayed as it is described in the following articles: 1) Sanchez-Sixto, C.; Prazeres, V. F. V.; Castedo, L.; Lamb, H.; Hawkins, A. R.; Gonzalez-Bello, C. J. Med. Chem. 2005, 48, 4871; 2) Prazeres, V. F. V.; Sanchez-Sixto, C.; Castedo, L.; Lamb, H.; Hawkins, A. R.; Riboldi-Tunnicliffe; Coggins, J. R.; Lapthorn, A. J.; González-Bello, C. Chem Med Chem 2007, 2, 194; and 3) Sanchez-Sixto, C.; Prazeres, V. F. V.; Castedo, L.; S. W. Suh, Lamb, H.; Hawkins, A. R.; Canada, F. J.; Jiménez-Barbero, J.; González-Bello, C. Chem Med Chem 2008, 3, 756.

The target of data set [2] is T2, type II dehydroquinase from Mycobacterium tuberculosis (Mycobacterium tuberculosis, UniProt P9WPX7). In words: biochemical. The note with it: pH = 7.0, 25° C., 50 mM Tris•HOAc. As for the experimental part: as §1
T2 sequence (P9WPX7 whole entry): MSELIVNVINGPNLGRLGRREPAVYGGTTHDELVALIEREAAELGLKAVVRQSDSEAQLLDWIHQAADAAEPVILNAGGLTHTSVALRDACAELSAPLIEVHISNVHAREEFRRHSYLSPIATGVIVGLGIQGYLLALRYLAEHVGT
Data set [3] addresses type II dehydroquinase from Streptomyces coelicolor (Streptomyces coelicolor, UniProt P15474). In words: Inhibition of type II dehydroquinase from Streptomyces coelicolor (Ki). The format is biochemical. As for the experimental part: as §1
The target in data set [4] is T1, type II dehydroquinase from Helicobacter pylori. The note with it: read-out: Km of natural substrate, H. pylori; cited from earlier work.
Data set [5] has as its target T2, type II dehydroquinase from Mycobacterium tuberculosis. Conditions: read-out: Km of natural substrate, M. tuberculosis; cited from earlier work.
The mark [6] stands for this setting: read-out: Inhibition constants Ki, H. pylori.
The mark [7] stands for this setting: Inhibition constants Ki, M. tuberculosis.
Where [8] appears, read: Inhibition constants Ki, S. coelicolor, pH = 7.0, 25° C., 50 mM Tris•HCl.
Setting [9] is: read-out: Inhibition constants Ki, M. tuberculosis.
Where [10] appears, read: Inhibition constants Ki, H. pylori.
Where [11] appears, read: pH = 7.0, 25° C., 50 mM Tris•HCl, read-out: Inhibition constants Ki, S. coelicolor.

Chain of type II dehydroquinase from Streptomyces coelicolor (P15474 whole entry): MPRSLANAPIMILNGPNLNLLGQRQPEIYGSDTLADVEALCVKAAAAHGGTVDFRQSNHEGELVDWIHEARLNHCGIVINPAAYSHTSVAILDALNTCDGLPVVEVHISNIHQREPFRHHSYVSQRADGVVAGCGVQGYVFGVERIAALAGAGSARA

What is called melting point is the temperature, or range, at which the solid turns liquid. Take `O=C(O)[C@@]1(O)C[C@@H](O)[C@H](O)C(OCc2cccs2)=C1Cc1cccs1` (as salt: sodium) (hydrate or solvate) [Ib-8]: the melting point was 178 to 181 °C.
Take `O=C(O)[C@]1(O)C=C(OCc2ccc3ccccc3c2)[C@@H](O)[C@H](O)C1` (as salt: sodium) (hydrate or solvate) [Ib-.10, Sodium (1R,4S,5R)-1,4-trihydroxy-3-(2-naphyl)methoxycyclohex-2-en-1-carboxylate]: the melting point is 54 °C (dec.).
On the same count and under the same terms, to `C=CC[C@H]1C(=O)[C@@H](O)[C@H](O)C[C@]1(O)C(=O)O` (hydrate or solvate) [(2R)-Ia-1, (2R)-2-allyl-3-dehydroquinic acid] belongs 144 to 148 °C; to `C=CC[C@@H]1C(=O)[C@@H](O)[C@H](O)C[C@]1(O)C(=O)O` (hydrate or solvate) [(2S)-Ia-1, (2S)-2-allyl-3-dehydroquinic acid], 127 to 130 °C.
Regarding `O=C([O-])[C@]1(O)C=C(OCc2ccc3sccc3c2)[C@@H](O)[C@H](O)C1.[Na+]` (hydrate or solvate) [Ib-7, Sodium (1R,4S,5R)-1,4,5-trihydroxy-3[(benzo[b]thiophen-5-yl)methoxy]cyclohex-2-en-1-carboxylate], the melting point was 157 to 160 °C (dec.).
Still for that read-out and setting: to `O=C([O-])[C@@]1(O)C[C@@H](O)[C@H](O)C(OCc2ccc3ccccc3c2)=C1Cc1ccc2ccccc2c1.[Na+]` (hydrate or solvate) [Ib-11, Sodium (1R,4S,5R)-1,4,5-trihydroxy-3-(naphth-2-yl)methoxy-2-(naphth-2-yl)methylcyclohex-2-en-1-carboxylate] belongs 184 to 187 °C; to `O=C([O-])[C@@]1(O)C[C@@H](O)[C@H](O)C(OCc2cccs2)=C1Cc1cc2ccccc2s1.[Na+]` (hydrate or solvate) [Ib-12, Sodium (1R,4S,5R)-1,4,5-trihydroxy-3-(thien-2-yl)methoxy-2-(benzo[b]thiophen-2-yl)methylcyclohex-2-en-1-carboxylate], 191 to 194 °C.
On the same count and under the same terms, for `O=C([O-])[C@@]1(O)C[C@@H](O)[C@H](O)C(OCc2ccc3sccc3c2)=C1Cc1cccs1.[Na+]` (hydrate or solvate) [Ib-13, Sodium (1R,4S,5R)-1,4,5-trihydroxy-3-(benzo[b]thiophen-5-yl)methoxy-2-(thien-2-yl)methylcyclohex-2-en-1-carboxylate] the value was 184 °C (dec.); for `Cc1cc2c(s1)[C@@H](O)[C@H](O)C[C@]2(O)C(=O)O` (hydrate or solvate) [Ic-2, (4R, 6R, 7S)-4,6,7-trihydroxy-2-methyl-4,5,6,7-tetrahydrobenzo[b]thiophen-4-carboxylic acid], 92 to 95 °C; for `Cc1ccc(CC2C(=O)C(O)C(O)CC2(O)C(=O)O)cc1` (single isomer, unassigned) (hydrate or solvate) [(2R)-Ia-4], 105 to 108 °C.
Same read-out and setting: for `O=C1C(O)C(O)CC(O)(C(=O)O)C1Cc1c(F)c(F)c(F)c(F)c1F` (single isomer, unassigned) (hydrate or solvate) [(2S)-Ia-6] the value was 123 to 125 °C.
In turn, `Cc1ccc(CC2C(=O)C(O)C(O)CC2(O)C(=O)O)cc1` (single isomer, unassigned) [(2S)-Ia-4] gave a melting point of 134 to 138 °C. Moreover, the Ki in data set [1] (setting [6]) came to 970 nM. In addition, the Ki in data set [2] (setting [7]) came to 90 nM. The compound also registered a Ki in data set [3] (setting [8]) of 150 nM.
For the compound `COc1ccc(CC2C(=O)C(O)C(O)CC2(O)C(=O)O)cc1` (single isomer, unassigned) [(2S)-Ia-5], the melting point fell in the range of 138 to 143 °C. In data set [2] (setting [7]), the Ki turned out to be 100 nM. In data set [3] (setting [8]), this compound came in with a Ki of 340 nM.
Turning to `O=C1C(O)C(O)CC(O)(C(=O)O)C1Cc1ccc2sccc2c1` (single isomer, unassigned) [(2S)-Ia-7], the melting point fell in the range of 152 to 155 °C. In data set [1] (setting [6]), the Ki amounted to 900 nM. In addition, in data set [2] (setting [7]), the Ki came out at 55 nM. Also, the Ki in data set [3] (setting [8]) came to 38 nM.
Turning to `O=C1[C@@H](O)[C@H](O)C[C@](O)(C(=O)O)[C@H]1Cc1ccccc1` [(2R)-Ia-3, (2R)-2-benzyl-3-dehydroquinic acid], the melting point was in the range of 146 to 148 °C. The Ki in data set [1] (setting [6]) came out at 1400 nM. Besides, the Ki in data set [2] (setting [9]) was 100 nM. Also, the Ki in data set [3] (setting [8]) was 1550 nM.
The like results for `O=C1[C@@H](O)[C@H](O)C[C@](O)(C(=O)O)[C@@H]1Cc1ccccc1` [(2S)-Ia-3, (2S)-2-benzyl-3-dehydroquinic acid] were, in that order, 131 to 134 °C, 1180 nM, 90 nM and 1050 nM.
Take `O=C(O)[C@@]1(O)C[C@@H](O)[C@H](O)c2sccc21` [Ic-1, (4R, 6R, 7S)-4,6,7-trihydroxy-4,5,6,7-tetrahydrobenzo[b]thiophen-4-carboxylic acid]: the melting point was 128 to 131 °C. For the same compound, in data set [1] (setting [10]), the Ki came out at 34000 nM. Besides, the Ki in data set [2] (setting [7]) was 3000 nM. Also, the Ki in data set [3] (setting [11]) amounted to 9700 nM.
As for `O=C(O)[C@@]1(O)C[C@@H](O)[C@H](O)c2sc(/C=C/C3CC3)cc21` [Ic-6], the melting point was 103 to 105 °C. Besides, in data set [1] (setting [10]), the Ki was found to be 1080 nM. In data set [2] (setting [7]), this compound returned a Ki of 110 nM. Besides, the Ki in data set [3] (read-out: affinities in the case of S. coelicolor) worked out at 0.3 nM.
`O=C(O)[C@@]1(O)C[C@@H](O)[C@H](O)c2sc(-c3ccccc3)cc21` [Ic-7, (4R,6R,7S)-4,6,7-trihyclroxy-2-phenyl-4,5,6,7-tetrahydroben-zo[b]thiophen-4-carboxylic acid] displayed a melting point of 168 to 173 °C. The Ki in data set [1] (setting [10]) is greater than 150000 nM. The Ki in data set [2] (setting [7]) came out at 97 nM. In data set [3] (setting [11]), the Ki is 85 nM.
The like results for `CCc1cc2c(s1)[C@@H](O)[C@H](O)C[C@]2(O)C(=O)O` [Ic-9, (4R,6R,7S)-2-ethyl-4,6,7-trihydroxy-4,5,6,7-tetrahydrobenzo[b]thiophen-4-carboxylic acid] were, in that order, 130 °C (dec.), 3400 nM, 185 nM and 800 nM.
For the compound `O=C(O)[C@@]1(O)C[C@@H](O)[C@H](O)c2sc(/C=C/c3ccccc3)cc21` [Ic-11], the melting point is 200 °C (dec.). Further, the Ki in data set [1] (setting [10]) amounted to 16000 nM. The Ki in data set [3] (setting [11]) amounted to 150 nM.
The term Km denotes the concentration of substrate that gives half-maximal velocity. For the compound `O=C1C[C@@](O)(C(=O)O)C[C@@H](O)[C@@H]1O` [natural substrate], the values for the Km in data set [4] and in data set [5] were 444 µM and 40 µM, respectively.
